Experiment [1] has as its target T1, mCXCR4 (Mus musculus, UniProt P70658).
T1 construct: endogenous in cells; host or cells: Eμ-myc 1080 mouse B cell lymphoma cells
Nature of the experiment: Competitive binding assay (IC50) on Eμ-Myc 1080 mouse lymphoma cells with [^125I]CPCR4.3 as radioligand. The conditions noted are these: Eμ-Myc1080 mouse B cell lymphoma cells, 200,000 cells/sample, radioligand [^125I]CPCR4.3. As for the experimental part:
To allow data normalization, [^natGa] Pentixafor and FC-131 were included as references in this study. Experiments were performed in triplicate with n = 3 per concentration in each experiment. IC50 values were calculated using GraphPad Prism 6.01 (Graph Pad Software, San Diego, USA).

For experiment [2], the target named is T2, hCXCR4 (Homo sapiens, UniProt P61073).
T2 construct: endogenous hCXCR4 (Jurkat); endogenous in cells
T2 sequence (P61073 whole entry): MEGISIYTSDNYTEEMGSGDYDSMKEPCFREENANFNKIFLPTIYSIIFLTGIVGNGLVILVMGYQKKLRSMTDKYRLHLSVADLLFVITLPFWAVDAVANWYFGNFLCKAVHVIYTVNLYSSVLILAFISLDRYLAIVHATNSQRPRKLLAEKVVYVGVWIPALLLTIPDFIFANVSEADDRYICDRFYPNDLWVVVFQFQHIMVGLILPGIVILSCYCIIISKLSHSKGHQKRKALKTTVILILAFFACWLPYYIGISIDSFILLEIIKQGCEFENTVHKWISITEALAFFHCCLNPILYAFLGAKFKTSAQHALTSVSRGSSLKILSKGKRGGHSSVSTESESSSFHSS
Nature of the experiment: Competitive binding assay (IC50) on Jurkat cells with [^125I]CPCR4.3 as radioligand. The settings on record: for IC50: Jurkat human T cell leukemia cells, 200,000 cells/sample, radioligand [^125I]CPCR4.3. As for the experimental part:
To allow data normalization, [^natGa] […] Experiments were performed in triplicate with n = 3 per concentration in each experiment. IC50 values were calculated using GraphPad Prism 6.01 (Graph Pad Software, San Diego, USA).

One may read the IC50 as the concentration needed to halve the response being measured. A higher IC50 goes with a need for much substance.

Non-standard residues stand in square brackets, D forms with d. Residues, ends and D or L forms follow the SMILES beside them. dAla(N-(6-guanidinohexyl)) = C[C@@H](NCCCCCCNC(=N)N)C(=O)O; dTyr(3-I) = N[C@H](Cc1ccc(O)c(I)c1)C(=O)O; 2Nal = N[C@@H](Cc1ccc2ccccc2c1)C(=O)O

T1 sequence (P70658 whole entry): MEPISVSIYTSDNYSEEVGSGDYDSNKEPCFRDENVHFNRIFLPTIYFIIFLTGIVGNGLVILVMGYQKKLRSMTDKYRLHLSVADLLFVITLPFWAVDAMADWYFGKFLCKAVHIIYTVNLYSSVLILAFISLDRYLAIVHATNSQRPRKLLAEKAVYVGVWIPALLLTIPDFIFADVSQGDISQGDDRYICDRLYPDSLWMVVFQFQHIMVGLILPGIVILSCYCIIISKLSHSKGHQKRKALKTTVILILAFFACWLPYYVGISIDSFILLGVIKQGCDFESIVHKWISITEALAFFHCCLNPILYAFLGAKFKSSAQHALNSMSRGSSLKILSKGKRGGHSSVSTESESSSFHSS

With `C[C@@H]1C(=O)N[C@@H](CCCNC(=N)N)C(=O)N[C@@H](Cc2ccc3ccccc3c2)C(=O)NCC(=O)N[C@H](Cc2ccc(O)cc2)C(=O)N1CCCCCCNC(=N)N` [CPCR4.3, cyclo(-D-Tyr^1-D-[N-hexyl-6-guanidino]Ala^2-Arg^3-Nal^4-Gly^5-)] (cyclo([dY][dAla(N-(6-guanidinohexyl))]R[2Nal]G)), the IC50 turned out to be 0.8 ± 0.1 nM in experiment [1] and 2.8 ± 1.1 nM in experiment [2].
In experiment [1], `N=C(N)NCCC[C@@H]1NC(=O)[C@H](CCCNC(=N)N)NC(=O)[C@@H](Cc2ccc(O)cc2)NC(=O)CNC(=O)[C@H](Cc2ccc3ccccc3c2)NC1=O` [FC-131] registered a half-maximal inhibitory concentration (IC50) of 119 ± 69 nM. Besides, the “hCXCR4 affinity higher than [^natGa]Pentixafor” value in experiment [2] (assay conditions of this study) is on record as “more than 3 fold”.
Regarding `C[C@@H]1C(=O)N[C@@H](CCCNC(=N)N)C(=O)N[C@@H](Cc2ccc3ccccc3c2)C(=O)NCC(=O)N[C@H](Cc2ccc(O)c(I)c2)C(=O)N1CCCCCCNC(=N)N` [iodo-CPCR4.3] (cyclo([dTyr(3-I)][dAla(N-(6-guanidinohexyl))]R[2Nal]G)), the half-inhibitory concentration (IC50) in experiment [1] turned out to be 4.9 ± 1.7 nM; in experiment [2], 5.4 ± 1.5 nM.
For “Ga-Pentixafor: natGa complex of the cyclic pentapeptide Pentixafor, hCXCR4 selective reference ligand”, the concentration for half-maximal inhibition (IC50) in experiment [1] is greater than 1000 nM.
In turn, “Ga-Pentixafor: natGa complex of the cyclic pentapeptide Pentixafor, hCXCR4 selective reference ligand (YXRXG; Head-to-tail cyclic pentapeptide; The parent CPCR4.3 is printed as cyclo(-D-Tyr1-D-[N-hexyl-6-guanidino]Ala2-Arg3-Nal4-Gly5-); the text states that Pentixafor has D-Orn at position 2 instead of the N-)” registered a 50% inhibitory concentration (IC50) in experiment [2] of 42.4 ± 11.6 nM.
